{
  "source": "patent US6602827B1",
  "about": "“Herbicidal 5-chlorodifluoromethyl-1,3,4-thiadiazol-2-yl-oxyacetanilides” (Bayer Aktiengesellschaft, priority 1999, dated 2003)",
  "key": {"Eriochloa": {"test_system": "Eriochloa", "experiment": "Pre-emergence test/greenhouse", "assay_type": "in vivo", "conditions": "125 g of ai./ha, rated after three weeks vs untreated control, 0% = no effect, 100% = total destruction", "experimental": "(§1) Pre-emergence Test Solvent: 5 parts by weight of acetone Emulsifier: 1 part by weight of alkylaryl polyglycol ether To produce a suitable preparation of active compound, 1 part by weight of active compound is mixed with the stated amount of solvent, the stated amount of emulsifier is added and the concentrate is diluted with water to the desired concentration. Seeds of the test plants are sown in normal soil. After 24 hours, the soil is sprayed with the preparation of active compound such that the particular amount of active compound desired is applied per unit area. The active compound concentration in the spray liquor is chosen so that the particular amount of active compound desired is applied in 1000 liters of water per hectare. After three weeks, the degree of damage to the plants is rated in % damage in comparison to the development of the untreated control. The figures denote: 0%=no effect (like untreated control) 100%=total destruction"}, "Galium [1]": {"test_system": "Galium", "experiment": "Pre-emergence test/greenhouse", "assay_type": "in vivo", "conditions": "125 g of ai./ha, rated after three weeks vs untreated control, 0% = no effect, 100% = total destruction", "experimental": "as §1"}, "Lolium": {"test_system": "Lolium", "experiment": "Pre-emergence test/greenhouse", "assay_type": "in vivo", "conditions": "125 g of ai./ha, rated after three weeks vs untreated control, 0% = no effect, 100% = total destruction", "experimental": "as §1"}, "Matricaria": {"test_system": "Matricaria", "experiment": "Pre-emergence test/greenhouse", "assay_type": "in vivo", "conditions": "125 g of ai./ha, rated after three weeks vs untreated control, 0% = no effect, 100% = total destruction", "experimental": "as §1"}, "Setaria [2]": {"test_system": "Setaria", "experiment": "Pre-emergence test/greenhouse", "assay_type": "in vivo", "conditions": "125 g of ai./ha, rated after three weeks vs untreated control, 0% = no effect, 100% = total destruction", "experimental": "as §1"}, "Soya": {"test_system": "Soya", "experiment": "Pre-emergence test/greenhouse", "assay_type": "in vivo", "conditions": "125 g of ai./ha, rated after three weeks vs untreated control, 0% = no effect, 100% = total destruction", "experimental": "as §1"}, "Wheat": {"test_system": "Wheat", "experiment": "Pre-emergence test/greenhouse", "assay_type": "in vivo", "conditions": "125 g of ai./ha, rated after three weeks vs untreated control, 0% = no effect, 100% = total destruction", "experimental": "as §1"}, "Galium [3]": {"test_system": "Galium", "experiment": "Post-emergence test/greenhouse", "assay_type": "in vivo", "conditions": "1000 g of ai./ha, rated after three weeks vs untreated control, 0% = no effect, 100% = total destruction", "experimental": "(§2) Solvent: 5 parts by weight of acetone\n(§3) Emulsifier: 1 part by weight of alkylaryl polyglycol ether\n(§4) To produce a suitable preparation of active compound, 1 part by weight of active compound is mixed with the stated amount of solvent, the stated amount of emulsifier is added and the concentrate is diluted with water to the desired concentration.\n(§5) Test plants which have a height of 5 to 15 cm are sprayed with the preparation of active compound such that the particular amounts of active compound desired are applied per unit area. The concentration of the spray liquor is chosen so that the particular amounts of active compound desired are applied in 1000 1 of water/ha.\n(§6) After three weeks, the degree of damage to the plants is rated in % damage in comparison to the development of the untreated control.\n(§7) 0%=no effect (like untreated control))"}, "Maize": {"test_system": "Maize", "experiment": "Post-emergence test/greenhouse", "assay_type": "in vivo", "conditions": "1000 g of ai./ha, rated after three weeks vs untreated control, 0% = no effect, 100% = total destruction", "experimental": "as §2, §3, §4, §5, §6, §7"}, "Setaria [4]": {"test_system": "Setaria", "experiment": "Post-emergence test/greenhouse", "assay_type": "in vivo", "conditions": "1000 g of ai./ha, rated after three weeks vs untreated control, 0% = no effect, 100% = total destruction", "experimental": "as §2, §3, §4, §5, §6, §7"}, "Xanthium": {"test_system": "Xanthium", "experiment": "Post-emergence test/greenhouse", "assay_type": "in vivo", "conditions": "1000 g of ai./ha, rated after three weeks vs untreated control, 0% = no effect, 100% = total destruction", "experimental": "as §2, §3, §4, §5, §6, §7"}, "weeds [5]": {"test_system": "weeds", "experiment": "Pre-emergence test, overall activity against weeds", "assay_type": "in vivo", "conditions": "in words", "experimental": "as §1"}, "[6]": {"test_system": "crop plants, such as soya and wheat", "experiment": "Pre-emergence test, crop tolerance", "assay_type": "in vivo", "conditions": "in words", "experimental": "as §1"}, "weeds [7]": {"test_system": "weeds", "experiment": "Post-emergence test, overall activity against weeds", "assay_type": "in vivo", "conditions": "in words", "experimental": "as §2, §3, §4, §5, §6, §7"}, "[8]": {"test_system": "crop plants, such as maize", "experiment": "Post-emergence test, crop tolerance", "assay_type": "in vivo", "conditions": "in words", "experimental": "as §2, §3, §4, §5, §6, §7"}},
  "data": [
    {"smiles": "CC(C)N(C(=O)COc1nnc(C(F)(F)Cl)s1)c1ccc(F)cc1", "note": "[Example 1, N-i-propyl-N-(4-fluoro-phenyl)-2-(5-chlorodifluoromethyl-1,3,4-thiadiazol-2-yl-oxy)-acetamide]", "values": [
      {"measurement": "degree of damage, Eriochloa", "setting": "Eriochloa", "result": 100, "unit": "%"},
      {"measurement": "degree of damage, Galium", "setting": "Galium [1]", "result": 90, "unit": "%"},
      {"measurement": "degree of damage, Lolium", "setting": "Lolium", "result": 90, "unit": "%"},
      {"measurement": "degree of damage, Matricaria", "setting": "Matricaria", "result": 100, "unit": "%"},
      {"measurement": "degree of damage, Setaria", "setting": "Setaria [2]", "result": 100, "unit": "%"},
      {"measurement": "degree of damage, Soya", "setting": "Soya", "result": 0, "unit": "%"},
      {"measurement": "degree of damage, Wheat", "setting": "Wheat", "result": 0, "unit": "%"},
      {"measurement": "degree of damage, Galium", "setting": "Galium [3]", "result": 95, "unit": "%"},
      {"measurement": "degree of damage, Maize", "setting": "Maize", "result": 30, "unit": "%"},
      {"measurement": "degree of damage, Setaria", "setting": "Setaria [4]", "result": 95, "unit": "%"},
      {"measurement": "degree of damage, Xanthium", "setting": "Xanthium", "result": 80, "unit": "%"},
      {"measurement": "activity against weeds", "setting": "weeds [5]", "result": "very strong activity"},
      {"measurement": "tolerance by crop plants", "setting": "[6]", "result": "tolerated well"},
      {"measurement": "activity against weeds", "setting": "weeds [7]", "result": "strong activity"},
      {"measurement": "tolerance by crop plants", "setting": "[8]", "result": "tolerated well"},
      {"measurement": "melting point", "result": 98, "unit": "°C"}
    ]}
  ]
}
